Data reported in PMC3906059, “Activation and Inhibition of TMEM16A Calcium-Activated Chloride Channels” (PLoS ONE, 2014).
Entries after “also recorded” stand apart in the source; their conditions may differ.

Key:
TMEM16A (ANO1) [1] = target: T1, TMEM16A (ANO1) (Mus musculus, UniProt Q8BHY3); test: Activation of ANO1 current by divalent cations, excised inside-out patch with fast solution exchange; type: cell-based; conditions: up to 30 mM [Mg^2+], intracellular side
T1 construct: We subcloned the coding region of the cDNA into pEGFP-N3 vector; expressed in transfected cells; host or cells: HEK293 cells
T1 sequence (Q8BHY3 1-956 isoform Q8BHY3-2): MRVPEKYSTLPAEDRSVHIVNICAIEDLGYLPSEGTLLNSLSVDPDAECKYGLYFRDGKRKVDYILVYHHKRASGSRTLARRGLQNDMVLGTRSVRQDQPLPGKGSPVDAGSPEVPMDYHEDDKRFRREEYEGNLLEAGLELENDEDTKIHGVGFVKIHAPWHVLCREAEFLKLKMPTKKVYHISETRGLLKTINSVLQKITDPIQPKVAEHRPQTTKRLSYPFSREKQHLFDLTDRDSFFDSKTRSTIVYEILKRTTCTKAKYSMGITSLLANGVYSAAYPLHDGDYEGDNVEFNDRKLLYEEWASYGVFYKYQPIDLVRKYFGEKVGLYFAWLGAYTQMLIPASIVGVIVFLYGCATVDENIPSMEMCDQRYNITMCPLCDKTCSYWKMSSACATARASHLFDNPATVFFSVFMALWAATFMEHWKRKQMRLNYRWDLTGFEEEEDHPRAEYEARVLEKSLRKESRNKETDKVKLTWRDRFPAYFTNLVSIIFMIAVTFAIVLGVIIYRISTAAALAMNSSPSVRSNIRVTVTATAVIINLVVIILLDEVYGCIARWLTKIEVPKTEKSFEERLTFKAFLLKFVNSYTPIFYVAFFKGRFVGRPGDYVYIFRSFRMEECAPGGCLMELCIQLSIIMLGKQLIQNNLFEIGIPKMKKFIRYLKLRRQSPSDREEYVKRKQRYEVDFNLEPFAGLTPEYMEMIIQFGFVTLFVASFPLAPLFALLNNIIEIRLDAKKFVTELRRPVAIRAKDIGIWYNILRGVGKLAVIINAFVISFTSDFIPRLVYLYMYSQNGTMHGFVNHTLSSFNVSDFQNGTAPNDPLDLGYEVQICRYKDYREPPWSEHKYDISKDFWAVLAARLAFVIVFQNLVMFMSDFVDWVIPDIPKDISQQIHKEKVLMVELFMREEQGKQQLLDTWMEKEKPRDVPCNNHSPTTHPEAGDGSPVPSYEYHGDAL
Text: (§1) The mouse TMEM16A cDNA (NCBI reference sequence: NM_001242349.1) encoding ANO1 CaCC was a generous gift from Dr. Lily Jan. We subcloned the coding region of the cDNA into pEGFP-N3 vector (Clontech Laboratories, Inc.), resulting in a construct in which an enhanced green fluorescent protein (eGFP) was attached to the C-terminus of the ANO1 protein. The sequence was confirmed by commercially-available DNA sequencing service. This eGFP-attached ANO1 cDNA construct was used for channel expression throughout the study. The cDNA was transfected into human embryonic kidney (HEK) 293 cells using lipofectamine transfection methods, [42], [43]. A fluorescent light source and a GFP filter set (Chroma Technology Co.) in the DM IRB inverted microscope (Leica Microsystems) were used to identify transfected cells expressing channel proteins. Electrophysiological experiments were performed ∼24 to 72 hours after transfection.
All chemicals were reagent grade. Regular salts (such as NaCl, NaOH, CaCl2, SrCl2, BaCl2, MgCl2 or sodium salts of various anions) were purchased from Fisher Chemicals (Fair Lawn, NJ), J. T. Baker (Phillipsburg, NJ) or Sigma Chemicals Co. (St. Louis, MO). EGTA, HEPES, and NFA were from Sigma Chemicals Co. Excised inside-out patch-clamp recordings were performed throughout the study. The extracellular (pipette) solution in all experiments contained: 140 mM NaCl, 10 mM HEPES, 0.1 mM EGTA, pH = 7.4. The regular intracellular solution contained 10 mM HEPES and 140 mM sodium salt of Cl^− or other anions. Various concentrations of divalent cations were made by adding certain total concentrations of divalent cations (Cl^− salts) into the solution containing a defined concentration of EGTA. We defined the pipette solution as the “zero-Ca^2+” solution. A solution containing a saturating [Ca^2+] was made by adding 0.12 mM total [Ca^2+] into the aforementioned zero-Ca^2+ solution, resulting in a solution containing ∼20 µM free [Ca^2+]. For making non-saturating [Ca^2+] solutions, the solutions included 1 mM EGTA. To make solutions containing Sr^2+ and Ba^2+, only 0.1 mM EGTA was used. The pH of all solutions was adjusted to 7.4.
Because of weak Mg^2+-EGTA binding, we referred the total [Mg^2+] as the free [Mg^2+]. The free [Ca^2+], [Sr^2+], and [Ba^2+] were calculated using the MaxChelator program (Ver1.2) kindly provided by Chris Patton from the Stanford University. This program was developed based on the binding constants available in the National Institute of Standard and Technology (NIST) between EGTA and these three divalent cations. Table S1, Table S2, and Table S3 list respectively the calculated free [Ca^2+], [Sr^2+], and [Ba^2+] used in this study. All added divalent cations were Cl^− salts. […] For example, in a solution containing 5 mM, 10 mM or 30 mM MgCl2, only 130 mM, 120 mM or 80 mM of NaCl, respectively, were added to the solution.
The patch-clamp recording pipettes were fabricated from borosilicate glass capillaries (World Precision Instruments) using PP830 electrode puller (Narishige International). When filled with the pipette solution, the electrode resistance was ∼1.5–3 MΩ. The experiments were carried out at room temperature (20–23°C) using the Axopatch 200B amplifier controlled by the Digidata I/O converter and the pClamp9 software (Axon Instruments/Molecular Devices).
Solution exchange was achieved using the SF-77 solution exchanger (Warner Instruments). After the excised inside-out patch mode was established, the tip of the patch pipette was positioned at the exit of the solution-delivery pipes of the SF-77 solution exchanger. The switch of solution pipes was controlled by a digital signal delivered from the Digidata 1320 digitizing board. […]

TMEM16A (ANO1) [2] = target: T1, TMEM16A (ANO1); test: Mg^2+ inhibition of Ca^2+-induced ANO1 current and shift of the Ca^2+-activation curve (Schild plot); type: cell-based
Text: as §1
All chemicals were reagent grade. Regular salts (such as NaCl, NaOH, CaCl2, SrCl2, BaCl2, MgCl2 or sodium salts of various anions) were purchased from Fisher Chemicals (Fair Lawn, NJ), J. T. Baker (Phillipsburg, NJ) or Sigma Chemicals Co. (St. Louis, MO). EGTA, HEPES, and NFA were from Sigma Chemicals Co. Excised inside-out patch-clamp recordings were performed throughout the study. The extracellular (pipette) solution in all experiments contained: 140 mM NaCl, 10 mM HEPES, 0.1 mM EGTA, pH = 7.4. The regular intracellular solution contained 10 mM HEPES and 140 mM sodium salt of Cl^− or other anions. Various concentrations of divalent cations were made by adding certain total concentrations of divalent cations (Cl^− salts) into the solution containing a defined concentration of EGTA. We defined the pipette solution as the “zero-Ca^2+” solution. A solution containing a saturating [Ca^2+] was made by adding 0.12 mM total [Ca^2+] into the aforementioned zero-Ca^2+ solution, resulting in a solution containing ∼20 µM free [Ca^2+]. For making non-saturating [Ca^2+] solutions, the solutions included 1 mM EGTA. […]
Because of weak Mg^2+-EGTA binding, we referred the total [Mg^2+] as the free [Mg^2+]. The free [Ca^2+], [Sr^2+], and [Ba^2+] were calculated using the MaxChelator program (Ver1.2) kindly provided by Chris Patton from the Stanford University. […] Table S1, Table S2, and Table S3 list respectively the calculated free [Ca^2+], [Sr^2+], and [Ba^2+] used in this study. […]
Solution exchange was achieved using the SF-77 solution exchanger (Warner Instruments). […] The recorded current is normally time-independent following fast solution exchange, but on infrequent occasions there is a slow increase of current. Therefore, we measured the current amplitude at the end of the solution exchange when the current amplitude reaches a steady-state maximal value. […]

CaCC of Xenopus oocytes = tested on: CaCC of Xenopus oocytes; set-up: method as in PMID 11279188; conditions: cited from earlier work
TMEM16A (ANO1) [3] = target: T1, TMEM16A (ANO1); test: Anion permeability of the ANO1 pore, Erev under bi-ionic conditions; type: cell-based; conditions: for permeability ratio PX/PCl: Ca^2+-activated current, calculated from Erev after junction potential correction; for zero current potential of I–V curve: example ramp −80 to +80 mV, [Ca^2+] = 20 µM, intracellular salt 140 mM (NaHCO3 130 mM + 10 mM NaCl)
Text: as §1
The anion permeability of the ANO1 pore was examined under bi-ionic conditions in which the extracellular solution contained 140 mM NaCl (the zero-Ca^2+ solution). The intracellular solution contained 140 mM sodium salts of various anions with the exception of the HCO3 ^− experiment in which the solution contained 130 mM NaHCO3 and 10 mM NaCl. In all intracellular solutions for the bi-ionic experiments, 0.1 mM EGTA and 0.12 mM total Ca^2+ or Sr^2+ were added to the solution to activate the ANO1 channel (Free [Ca^2+] or [Sr^2+] were saturating concentrations). Erev of the open channel was measured in two ways. First, under voltage-clamp configuration, a 3-sec voltage ramp from −80 mV to +80 mV was applied and the Erev of the leak-subtracted I-V curve was then determined (see Fig. 5 A & B). The second method employed the current-clamp (I = 0) mode in which the patch was exposed to divalent cations throughout the recording (Fig. 5 C and Fig. 6 A & C). When the intracellular solution contained the same concentration of Cl^− as that in the extracellular side, the recorded voltage (EI = 0) was normally close to 0 mV. When the intracellular solution was replaced by the one containing other anions, the value of EI = 0 changed to a new value corresponding to the Erev of the new ionic condition. It is important to point out that the measurement of Erev can be imprecise if the amplitude of the ANO1 current is not within a proper range. Therefore, in permeability ratio measurements we only used the data obtained from patches with a maximal current in the range of 100 pA–1000 pA at +40 mV. All the presented Erev values (and the recording traces for measuring Erev) are not corrected for junction potential difference between solutions because the junction potentials are relatively small. However, the reported permeability ratios were calculated based on the junction potential-corrected Erev. The correction for the junction potential results in very small changes in the calculated permeability ratios.
The permeability ratios of various anions versus Cl^− (PX/PCl, where X represents various anions) were calculated using the Erev obtained from bi-ionic experiments according to the following equation (eq. 3), PX/PCl = exp[Erev/(RT/F)], where R, T, and F are the gas constant, absolute temperature, and Faraday constant, respectively. Comparing the difference between Erev’s of the Ca^2+- and Sr^2+-activated current was performed using the pair t test at the significant level of 0.05.

[4] = Schild plot from K1/2,Ca in 0, 2, 5 and 10 mM Mg^2+
[5] = Ca^2+-activated current (20 µM), 140 mM extracellular NaCl, anion as intracellular sodium salt 140 mM (HCO3: 130 mM NaHCO3 + 10 mM NaCl), without junction potential correction, averaged
[6] = current activated by 20 µM Sr^2+, current clamp (I = 0), without correcting for junction potential

Row | SMILES | voltage dependence of inhibition (CaCC of Xenopus oocytes) | Erev (bi-ionic potential) (TMEM16A (ANO1) [3]; [5]) [mV] | permeability ratio PX/PCl (TMEM16A (ANO1) [3]) | zero current potential of I–V curve (TMEM16A (ANO1) [3]; 140 mM extracellular NaCl) | Erev (bi-ionic potential) (TMEM16A (ANO1) [3]; [6]) [mV] | other results
1 | [Mg+2] [Mg^2+] | – | – | – | – | – | ANO1 activation by Mg^2+ (TMEM16A (ANO1) [1]): no ANO1 activation was detected; also recorded: unable to detect ANO1 current; IC50 (TMEM16A (ANO1) [2]; ANO1 current induced by 0.666 µM free Ca^2+, fit to eq. 2, read-out: apparent half-inhibition concentration): 5.4 mM; [Mg^2+] that increases K1/2,Ca 2-fold (Schild plot) (TMEM16A (ANO1) [2]; [4]): ~2.5 mM; pMg at crossing of the horizontal axis of the Schild plot (TMEM16A (ANO1) [2]; [4]): ~2.6; Mg^2+ inhibition of ANO1 current activated by saturating [Ca^2+] (TMEM16A (ANO1) [2]; saturating [Ca^2+], 5 mM Mg^2+ (Fig. 4 C)): not observed; also recorded: not inhibited
2 | O=S(=O)(O)c1cc(N=C=S)ccc1C=Cc1ccc(N=C=S)cc1S(=O)(=O)O [DIDS] | voltage dependent | – | – | – | – | –
3 | O=C(O)c1c2ccccc2cc2ccccc12 [A9C] | voltage dependent | – | – | – | – | sideness of the block (CaCC of Xenopus oocytes): from the extracellular side
4 | O=C([O-])O.[Na+] [HCO3 ^−] | – | −27.6±2.4 | ~0.3 | -27 mV | – | –
5 | N#C[S-].[Na+] [SCN^−] | – | 62.0±2.4 | ~11 | +64 mV | 59.4±0.8 | Erev (bi-ionic potential) (TMEM16A (ANO1) [3]; Ca^2+-activated current (20 µM), 140 mM extracellular NaCl, anion as intracellular sodium salt 140 mM (HCO3: 130 mM NaHCO3 + 10 mM NaCl), without junction potential correction, averaged, listed as SCN^–): ~+60 mV; voltage shift induced by SCN^− in Sr^2+ smaller than that in Ca^2+ by (TMEM16A (ANO1) [3]; same patch, 140 mM intracellular NaSCN, 4 patches): ~1 mV
6 | [Br-].[Na+] [Br^−] | – | 18.0±1.2 | ~2.1 | +17 mV | 16.2±0.4 | –
